Data on seven molecules can be found in patent US4332820A, “Substituted benzonitriles having antiviral activity” (The Dow Chemical Company, priority 1980, dated 1982).

Values after ≈ are worked out from the molar mass of the structure shown.

Data set [1] in a line: Cytotoxicity in tissue culture (HeLa monolayers). The class given is cell-based. Particulars: human; HeLa cells; observed at 48 and 72 hours post-treatment; read-out: Cytotoxicity (concentration of the compound found to be toxic to the cell).
For a further data set, the system named is rhinovirus type 2 (RV-2). As to the kind of experiment: Tissue culture antiviral testing, RV-2 (cytopathic effect, HeLa cells). Format: cell-based. Particulars: Enterovirus, HeLa cells, NA = not active at the standard test conditions, read-out: Lowest concentration of the compound necessary to cause a 50 percent reduction in cytopathic effect.
The subject of the next data set is rhinovirus type 8 (RV-8). Nature of the data set: Tissue culture antiviral testing, RV-8 (cytopathic effect, HeLa cells). The class given is cell-based. Particulars: Enterovirus, HeLa cells, read-out: Lowest concentration of the compound necessary to cause a 50 percent reduction in cytopathic effect.
A further data set concerns Cox A21. Nature of the data set: Single Oral Dose test in mice challenged with Cox A21. The class given is in vivo, Swiss male mice. Particulars: po, 600 mg/kg, 3 h.
For a further data set, the system named is rhinovirus type 5 (RV-5). As to the kind of experiment: Tissue culture antiviral testing, RV-5 (cytopathic effect, HeLa cells). Particulars: Enterovirus, HeLa cells, read-out: Lowest concentration of the compound necessary to cause a 50 percent reduction in cytopathic effect. Format: cell-based.
Data set [2] concerns Coxsackie A21 virus (Cox A21). Nature of the data set: Tissue culture antiviral testing, Cox A21 (cytopathic effect, HeLa cells). The class given is cell-based. Particulars: HeLa cells, NA = not active at the standard test conditions, read-out: Lowest concentration of the compound necessary to cause a 50 percent reduction in cytopathic effect.
The test system of data set [3] is rhinovirus type 1A (RV-1A). As to the kind of experiment: Tissue culture antiviral testing, RV-1A (cytopathic effect, HeLa cells). Format: cell-based. Particulars: Enterovirus, HeLa cells, NA = not active at the standard test conditions, read-out: Lowest concentration of the compound necessary to cause a 50 percent reduction in cytopathic effect.
A further data set concerns Coxsackie A21 virus. Nature of the data set: Continuous Oral Feeding test in mice challenged with Coxsackie A21. Particulars: po, 0.06 % in diet, 240 h, 0.06 % strength. The class given is in vivo.

`N#Cc1cc([N+](=O)[O-])ccc1Oc1ccc(Cl)cc1Cl` [Example 2, 2-(2,4-Dichlorophenoxy)-5-nitrobenzonitrile]: the MCC in data set [1] was more than 100 µg/mL. Also, the EC50 in the data set with rhinovirus type 2 (RV-2) was 0.625 µg/mL (≈ 2.02 µM); with rhinovirus type 8 (RV-8), 2.5 µg/mL (≈ 8.09 µM); with rhinovirus type 5 (RV-5) it was 2.5 µg/mL (≈ 8.09 µM); in data set [2], 1.25 µg/mL (≈ 4.04 µM); in data set [3], 0.625 µg/mL (≈ 2.02 µM). The “X^2 (Single Oral Dose, chi-square of deaths vs virus control)” value in the data set on Cox A21 was 3.659. Besides, the “X^2 (Continuous Oral Feeding, chi-square of deaths)” value in the data set on Coxsackie A21 virus is recorded as 1.38.
With `N#Cc1cc([N+](=O)[O-])ccc1Oc1ccc(Br)cc1` [Example 3, 2-(4-Bromophenoxy)-5-nitrobenzonitrile], the MCC in data set [1] is more than 100 µg/mL. Further, the EC50 was determined as 1.25 µg/mL (≈ 3.92 µM) in the data set with rhinovirus type 2 (RV-2), 2.5 µg/mL (≈ 7.83 µM) in data set [2] and 1.25 µg/mL (≈ 3.92 µM) in data set [3]. In addition, the “X^2 (Single Oral Dose, chi-square of deaths vs virus control)” value with Cox A21 is recorded as 2.139. For the same molecule, the “X^2 (Continuous Oral Feeding, chi-square of deaths)” value in the data set on Coxsackie A21 virus is 5.81.
As to `N#Cc1cc([N+](=O)[O-])ccc1Oc1ccc(Cl)cc1` [Example 4, 2-(4-Chlorophenoxy)-5-nitrobenzonitrile], the MCC in data set [1] is more than 100 µg/mL. For the same molecule, the EC50 is not above 0.625 µg/mL with rhinovirus type 2 (RV-2); less than 6 µg/mL with rhinovirus type 8 (RV-8); less than 0.3 µg/mL in the data set with rhinovirus type 5 (RV-5); 0.625 µg/mL (≈ 2.28 µM) in data set [2]; not above 0.625 µg/mL in data set [3]. For the same molecule, in the data set with Cox A21, the “X^2 (Single Oral Dose, chi-square of deaths vs virus control)” value is on record as 0.252. Also, in the data set on Coxsackie A21 virus, the “X^2 (Continuous Oral Feeding, chi-square of deaths)” value is 10.61.
Regarding `CSc1ccc(Oc2ccc([N+](=O)[O-])cc2C#N)cc1` [Example 6, 2-(4-(Methylthio)phenoxy)-5-nitrobenzonitrile], the MCC in data set [1] stood at 100 µg/mL. Also, the EC50 in the data set on rhinovirus type 2 (RV-2) was not above 6.25 µg/mL; in data set [2], less than 6.25 µg/mL. The “X^2 (Single Oral Dose, chi-square of deaths vs virus control)” value in the data set on Cox A21 was determined as 0.609. Besides, the “X^2 (Continuous Oral Feeding, chi-square of deaths)” value with Coxsackie A21 virus was determined as 6.91.
As for `C[S+]([O-])c1ccc(Oc2ccc([N+](=O)[O-])cc2C#N)cc1` (stereo not shown) [Example 7, 2-(4-(Methylsulfinyl)phenoxy)-5-nitrobenzonitrile], the MCC in data set [1] was 50 µg/mL. Further, the EC50 in the data set with rhinovirus type 2 (RV-2) is 6.25 µg/mL (≈ 20.7 µM); in data set [2] it was less than 6.25 µg/mL. For the same molecule, the “X^2 (Single Oral Dose, chi-square of deaths vs virus control)” value in the data set on Cox A21 is recorded as 18.94. Also, in the data set on Coxsackie A21 virus, the “X^2 (Continuous Oral Feeding, chi-square of deaths)” value is 18.82.
With `CS(=O)(=O)c1ccc(Oc2ccc([N+](=O)[O-])cc2C#N)cc1` [Example 8, 2-(4-(Methylsulfonyl)phenoxy)-5-nitrobenzonitrile], in data set [1], the MCC was more than 100 µg/mL. The EC50 with rhinovirus type 2 (RV-2) was 12.5 µg/mL (≈ 39.3 µM); in data set [2], less than 6.25 µg/mL. Also, the “X^2 (Single Oral Dose, chi-square of deaths vs virus control)” value with Cox A21 amounted to 0.095. Further, the “X^2 (Continuous Oral Feeding, chi-square of deaths)” value in the data set on Coxsackie A21 virus is listed as 10.45.
Turning to `N#Cc1cc([N+](=O)[O-])ccc1Sc1ccc(Cl)cc1` [Example 12, 2-((4-Chlorophenyl)thio)-5-nitrobenzonitrile], the MCC in data set [1] turned out to be 25 µg/mL. Besides, the EC50 is not above 1.6 µg/mL with rhinovirus type 2 (RV-2), 1.6 µg/mL (≈ 5.5 µM) in data set [2] and approximately 3.12 µg/mL (≈ 10.7 µM) in data set [3]. In addition, the “X^2 (Single Oral Dose, chi-square of deaths vs virus control)” value in the data set with Cox A21 was determined as 4.805. For the same molecule, the “X^2 (Continuous Oral Feeding, chi-square of deaths)” value in the data set on Coxsackie A21 virus is 0.215.
